Assay results reported in US20050043331A1, “Substituted 3-(2,5-disubstituted)pyridyl-4-aryl pyrroles for treating inflammatory diseases” (priority 2002, published 2005).
Like-named read-outs stand apart in the source and are kept apart here.

Tests used:
TNF-α [1] = experiment: In-vitro whole cell assay for TNF-α inhibition (LPS-stimulated PBMC, ELISA); format: cell-based; details: TNF-α by ELISA
Description: Freshly obtained venous blood was anticoagulated with heparin, diluted with an equal volume of phosphate buffered saline (“PBS”) and placed in a sterile tube or other container. Aliquots (30 mL) of this mixture were transferred to centrifuge tubes, which were underlaid with Ficoll-Hypaque (15 mL). The prepared tubes were centrifuged at 400×g, without braking, for 30 min at room temperature. Approximately ½ to ⅔ of the platelet layer above the mononuclear cell band was removed with a pipette. The majority of the mononuclear cell layer was carefully removed using a pipette and these PBMC's were diluted with PBS and spun at 600×g for 15 min. The resulting PBMC's were washed with another portion of PBS and spun at 400×g for 10 min at room temperature. The recovered pellets were diluted in low endotoxin RPMI/1% FCS culture medium, and gave a cell concentration of 0.5-2.0×10^6 PMBC/ mL. A small volume of the suspension was removed for counting on a hemocytometer and the remaining preparation was centrifuged at 200×g for 15 min at room temperature. The recovered pelleted PMBC's were resuspended in RPMI/1% FCS to a concentration of 1.67×10^6/mL.
To run the assay, the PBMC suspension (180 μL) was transferred to duplicate wells of a 96-well flat-bottom microtiter plate and incubated for 1 h at 37° C. A solution of test compound (10 μL: prepared at 20× the desired final concentration) was added to each well and the plate was incubated for 1 h at 37° C. A solution (10 μL) of LPS in RPMI/1% FCS (200 ng/mL) was added and the wells were incubated overnight at 37° C. The supernate (100 μL) was removed from each well and diluted with RPMI/1% FCS (400 μL). The samples were analyzed for TNF-α using a commercial ELISA kit (Genzyme).

P38 = P38 (Homo sapiens, UniProt Q16539); experiment: P38 cell, 1 μM LJ; format: cell-based; parameters: unit not given here
TNF-α [2] = experiment: In vivo rodent assay for inhibition of LPS-induced TNF-α production; parameters: species or system Mice (BALB/cJ females); details: Mus musculus, po, 10 mg/kg oral
Description: Mice (BALB/cJ females, Jackson Laboratories) or rats (Lewis males, Charles River) were fasted for 30 min. The animals were dosed orally on a mg/kg basis at a range of times prior to being injected intraperitoneally with LPS at 1 mg/kg and returned to their cages for 1 h. Animals were anesthetized by CO2, exsanguinated by cardiac puncture and whole blood collected (0.1-0.7 mL). The blood was allowed to clot and serum was transferred to a centrifuge tube. This sample was centrifuged, and serum was collected, aliquoted and frozen at −80° C. Samples were tested by commercial ELISA's for TNF-α (Endogen for mouse TNF-α and Biosource for rat TNF-α).

[3] = 0.5 h, 0.5 h, read-out: Mouse 10 mg/kg % inhib 0.5 h
[4] = 2 h, 2 h, read-out: Mouse 10 mg/kg % inhib 2 h

Sequence of P38 (Q16539 whole entry): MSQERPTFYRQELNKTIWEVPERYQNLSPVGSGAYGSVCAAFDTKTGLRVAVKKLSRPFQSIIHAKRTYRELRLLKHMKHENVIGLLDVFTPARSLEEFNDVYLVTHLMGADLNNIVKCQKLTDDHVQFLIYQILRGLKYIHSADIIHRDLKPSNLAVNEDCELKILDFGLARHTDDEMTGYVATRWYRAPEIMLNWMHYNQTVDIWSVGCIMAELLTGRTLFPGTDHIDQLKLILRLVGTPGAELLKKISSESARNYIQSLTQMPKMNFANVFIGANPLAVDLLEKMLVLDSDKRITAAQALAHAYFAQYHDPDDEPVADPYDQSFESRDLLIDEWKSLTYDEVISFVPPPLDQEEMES

IC50 (TNF-α [1]) | P38 cell 1 μM LJ (P38) | Structure (SMILES) | inhibition in vivo at 10 mg/kg (TNF-α [2]; [3]) | inhibition in vivo at 10 mg/kg (TNF-α [2]; [4])
150 nM | – | O=C1CCCn2cc(-c3ccncc3)c(-c3ccc(F)cc3)c21 [Cpd 134] | 61% | 31%
135 nM | – | CCN1CCN(c2c(-c3ccncc3)c(-c3ccc(F)cc3)c(C(=O)OC)n2C)CC1 [Cpd 124] | 67.8% | –
105 nM | – | CCn1c(C(=O)OC)c(-c2ccc(F)cc2)c(-c2ccncc2)c1N(C)CCN1CCOCC1 [Cpd 163] | 66% | 13%
57 nM | – | COC(=O)c1c(-c2ccc(F)cc2)c(-c2ccncc2)c(Nc2ccccc2)n1C [Cpd 119] | -10.5% | –
2 nM | – | COC(=O)c1c(-c2ccc(F)cc2)c(-c2ccncc2)c(-c2cccc(NC(C)=O)c2)n1C [Cpd 144] | 59% | –
18 nM | – | Cn1c(C#N)c(-c2ccc(F)cc2)c(-c2ccncc2)c1N1CCNCC1 [Cpd 186] | – | 67%
98 nM | – | COC(=O)c1c(-c2ccc(F)cc2)c(-c2ccncc2)c(NCCN(C)C)n1C [Cpd 114] | -43% | –
407 nM | – | COC(=O)c1c(-c2ccc(F)cc2)c(-c2ccncc2)c(NCc2cccc(OC)c2)n1C [Cpd 177] | – | 63%
190 nM | – | COc1ccc(CNCc2[nH]cc(-c3ccncc3)c2-c2ccc(F)cc2)cc1 [Cpd 138] | -30% | –
70 nM | – | CCn1cc(-c2ccncc2)c(-c2ccc(F)cc2)c1CO [Cpd 143] | 48% | –
55 nM | – | COC(=O)c1c(-c2ccncc2)c(-c2ccc(F)cc2)cn1C [Cpd 141] | -56% | –
248 nM | – | CCOC(=O)c1c(-c2ccc(F)cc2)c(-c2ccncc2)c(CCCOCc2ccccc2)n1C [Cpd 155] | 51% | –
894 nM | – | COC(=O)c1c(-c2ccncc2)c(-c2ccc(F)cc2)c(C#CCCO)n1C [Cpd 167] | 30% | –
23 nM | – | COC(=O)c1c(-c2ccc(F)cc2)c(-c2ccncc2)cn1C(=O)OC [Cpd 139] | -22% | –
852 nM | – | CN(C)CCn1cc(-c2ccncc2)c(-c2ccc(F)cc2)c1CO [Cpd 147] | 20% | –
120 nM | – | COC(=O)c1c(-c2ccc(F)cc2)c(-c2ccncc2)c(-c2ccc(N(C)C)cc2)n1C [Cpd 122] | -22% | –
117 nM | – | CN(CCN1CCOCC1)c1c(-c2ccncc2)c(-c2ccc(F)cc2)cn1C [Cpd 173] | 65% | -17%
42 nM | – | COC(=O)c1c(-c2ccc(F)cc2)c(-c2ccncc2)c(NCc2ccc(OC)cc2)n1C [Cpd 160] | 79% | -46%
625 nM | – | Cn1c(Br)c(-c2ccncc2)c(-c2ccc(F)cc2)c1C#N [Cpd 170] | 22% | –
326 nM | – | COC(=O)C1CCn2cc(-c3ccncc3)c(-c3ccc(F)cc3)c2C1=O (centres unmarked) [Cpd 133] | -9% | –
7.7 nM | – | COC(=O)c1c(-c2ccc(F)cc2)c(-c2ccncc2)c(C#CCN2CCN(C)CC2)n1C [Cpd 184] | – | 57%
3 nM | – | CN(CCO)Cc1[nH]cc(-c2ccc(F)cc2)c1-c1ccncc1 [Cpd 180] | – | -8%

More lines, now with the values behind:

Structure (SMILES) | IC50 (TNF-α [1]) | P38 cell 1 μM LJ (P38) | inhibition in vivo at 10 mg/kg (TNF-α [2]; [3]) | inhibition in vivo at 10 mg/kg (TNF-α [2]; [4])
COC(=O)c1c(-c2ccc(F)cc2)c(-c2ccncc2)cn1CCN1CCOCC1 [Cpd 60] | 10000 nM | 1 | – | –
COC(=O)c1c(-c2ccc(F)cc2)c(-c2ccncc2)c(N2CCN(C(=O)OC(C)(C)C)CC2)n1C [Cpd 8a] | 4260 nM | 28 | – | –
CCOC(=O)c1c(-c2ccc(F)cc2)c(-c2ccncc2)cn1C [Cpd 86] | 125 nM | −2 | – | –
CCOC(=O)c1[nH]cc(-c2ccncc2)c1-c1ccc(C)cc1 [Cpd 75] | 136 nM | 42 | – | –
CC(C)NC(=O)c1c(-c2ccc(F)cc2)c(-c2ccncc2)c(N2CCNCC2)n1C [Cpd 89] | – | 22 | – | –
CCOC(=O)c1c(-c2ccc(Br)cc2)c(-c2ccncc2)cn1C [Cpd 77] | 211 nM | 62 | – | –
CCOC(=O)c1c(-c2ccc(F)cc2)c(-c2ccncc2)c(Br)n1C [Cpd 87] | 86 nM | 4 | – | –
CC(C)C(C)NC(=O)c1c(-c2ccc(F)cc2)c(-c2ccncc2)c(N2CCNCC2)n1C (centres unmarked) [Cpd 90] | – | 15 | – | –
COC(=O)c1c(-c2ccncc2)c(-c2ccc(F)cc2)c(C#CCN2CCOCC2)n1C [Cpd 44, 4-(4-Fluorophenyl)-1-methyl-5-[3-(4-morpholinyl)-1-propynyl]-3-(4-pyridinyl)-1H-pyrrole-2-carboxylic acid methyl ester] | 788 nM | – | – | 47%
COC(=O)c1c(-c2ccncc2)c(-c2ccc(F)cc2)c(Br)n1C [Cpd 43, 5-Bromo-4-(4-fluorophenyl)-1-methyl-3-(4-pyridinyl)-1H-pyrrole-2-carboxylic acid methyl ester] | 180 nM | – | -6% | –
OCc1[nH]cc(-c2ccc(F)cc2)c1-c1ccncc1 [Cpd 26, 4-(4-Fluorophenyl)-3-(4-pyridinyl)-1H-pyrrole-2-methanol] | 101 nM | – | -72% | –
CCCC1=C(c2ccnc(N[C@@H](C)c3ccccc3)n2)C(c2ccc(F)cc2)=CC1CCN1CCOCC1 (some centres unmarked) [Cpd 55] | 4 nM | – | -35% | –
COC(=O)c1c(-c2ccc(F)cc2)c(-c2ccncc2)c(C2=CCNCC2)n1C [Cpd 7, 3-(4-Fluorophenyl)-1-methyl-4-(4-pyridinyl)-5-(1,2,3,6-tetrahydro-4-pyridinyl)-1H-pyrrole-2-carboxylic acid methyl ester] | 72 nM | – | 96% | –
Cn1cc(-c2ccncc2)c(-c2ccc(F)cc2)c1-c1cnco1 [Cpd 41, 4-[4-(4-Fluorophenyl)-1-methyl-5-(5-oxazolyl)-1H-pyrrol-3-yl]pyridine] | 59 nM | – | 53% | –
CCCNC(=O)c1c(-c2ccc(F)cc2)c(-c2ccncc2)c(N2CCNCC2)n1C [Cpd 88] | 10000 nM | 7 | – | –
O=C1CCn2cc(-c3ccncc3)c(-c3ccc(F)cc3)c21 [Cpd 22, 7-(4-Fluorophenyl)-2,3-dihydro-6-(4-pyridinyl)-1H-pyrrolizin-1-one] | 138 nM | – | 63% | -3%
O=C1CCCn2c(NCCN3CCOCC3)c(-c3ccncc3)c(-c3ccc(F)cc3)c21 [Cpd 24, 1-(4-Fluorophenyl)-6,7-dihydro-3-[[2-(4-morpholinyl)ethyl]amino]-2-(4-pyridinyl)-8(5H)-indolizinone] | 2560 nM | – | 51% | –
COC(=O)c1c(-c2ccc(F)cc2)c(-c2ccncc2)c(N2CCNCC2)n1C [Cpd 8, 3-(4-Fluorophenyl)-1-methyl-5-(1-piperazinyl)-4-(4-pyridinyl)-1H-pyrrole-2-carboxylic acid methyl ester] | 33 nM | – | 73% | –
